# Reference: publication PMC9168271, “Discovery of Novel Tetrahydro-β-carboline Containing Aminopeptidase N Inhibitors as Cancer Chemosensitizers” (Frontiers in Oncology, 2022)
# Tests used:
# [1] = tested on: MDA-MB-231 cells; test: MTT antiproliferative assay, chemotherapeutic drug with APN inhibitor; assay type: cell-based, human; settings: with PTX, EPB, CTX, CBP, 48 h
# Source text: (§1) The combination of APN inhibitor and paclitaxel (PTX), has been employed for the treatment of human breast cancer. In the current study, molecules with good APN inhibitory potency (D12, D14 and D16) were selected and used in combination with several chemotherapeutic drugs, such as PTX, EPB, cyclophosphamide (CTX) and carboplatin (CBP) to investigate its inhibitory effect on breast cancer. Human triple negative breast cancer cell (TNBC) lines MDA-MB-231 and MDA-MB-468 were utilized in the in vitro studies. […] It was also observed that the synthesized molecules enhanced chemotherapeutic drug sensitivity in a dose dependent manner. Therefore, further analysis was performed to examine the synergistic effects of the derived APN inhibitors and chemotherapeutic drugs.
# (§2) Then, 10μL of MTT solution (5 mg/mL) were added to each well. After incubation for 4h, the medium was carefully removed, and 100 μL DMSO was added to each well and fully dissolved in vibration for 10min. The optical density (OD) at 490 nm and 630 nm were measured with a microplate Spectrophotometer (M5, MD). IC50 values were obtained from at least 3 independent experiments.
# [2] = tested on: MDA-MB-468 cells; test: as above; assay type: cell-based, human; settings: with PTX, EPB, CTX, CBP, 48 h
# Source text: as §1, §2
# [3] = tested on: CD13 (APN) expression in MDA-MB-231 cells; test: Flow cytometry of APN expression; assay type: cell-based, human; settings: 48 h
# Protocol: (§3) The cells were seeded in 6-well plates (4 × 10^5 cells/well) and treated with tested compounds for 48 h. Then, cells were collected into 1.5 mL EP tubes, washed twice with PBS, and centrifuged at 2500rpm for 5minutes. Cells were resuspended with 100μlof PBS, then 2μL/tube of APN antibody was added, followed by incubation in dark for 30 minutes at 4°C. Then the cells were subjected to flow cytometry (FACSAria II, Becton-Dickinson) for the expression of APN.
# [4] = tested on: CD13 (APN) expression in MDA-MB-468 cells; test: Flow cytometry of APN expression; assay type: cell-based, human; settings: 48 h
# Protocol: as §3
# [5] = tested on: MDA-MB-231 cells; test: Apoptosis analysis (Annexin V-FITC/PI); assay type: cell-based, human; settings: 48 h
# Protocol: (§4) Moreover, APN inhibitor-induced chemo-sensitization had been frequently reported for PTX ([17], [29]). Therefore, the combination of PTX-APN inhibitor was selected in the subsequent studies.
# (§5) The cells were seeded in 6-well plates (3 × 10^5 cells/well) and treated with various compounds for 48 h. Then, cells were collected and washed twice with cold PBS. Annexin V-FITC staining solution was then added to the cells, and cells were incubated at 2-8°C for 15 minutes under dark conditions. Then, PI staining solution was added by gentle mix at 2-8°C. After 5 minutes of incubation under dark conditions, cells were tested with flow cytometry immediately.
# [6] = tested on: MDA-MB-468 cells; test: Apoptosis analysis (Annexin V-FITC/PI); assay type: cell-based, human; settings: 48 h
# Protocol: as §4, §5
# [7] = tested on: MDA-MB-231 cells; test: Spheroid-formation assay; assay type: cell-based, human; settings: 1 nM PTX + 1 µM APN inhibitor, 7 days
# Protocol: (§6) Cancer stem cells (CSCs) play an important role in the resistance of cancer cells to chemotherapeutic drugs. APN has been reported to be a therapeutic target in human cancer stem cells ([18]). Therefore, the CSC based test was performed in the present study. Colony-formation assay and spheroid-formation assay are two commonly used methods to assess the capacity of CSCs in vitro. In the spheroid-formation assay, MDA-MB-231 and MDA-MB-468 cells were dispersed into single cells, inoculated into low-adherence 6-well plates, and added with stem cell sphere medium. The stem cell spheres became visible after 5-6 days incubation. […] It is known that mRNA levels of the stem cell biomarkers OCT-4, SOX-2 and Nanog are associated with the characteristics of TNBC stem cells ([30]). Therefore, RT-PCR was performed on the TNBC cells to detect the mRNA levels of these markers.
# (§7) MDA-MB-231 cells and MDA-MB-468 cells in logarithmic growth phase were collected, stem cell sphere culture medium without serum (containing 50X B-27Supplement,100X N-2 Supplement,20 μg/L epidermal growth factor (EGF), 20µg/L insulin-like growth factor (IGF-1), 10 μg/L fibroblast growth factor (b-FGF), 20X Knock Out SR, 2mM L-Glutamine, 5mg/L Heparin sodium, 1X PENICILLIN-STREPTOMYCIN and DMEM: F12 (1:1) medium was added for the re-suspension and fully blown into single-cell suspension. The cells were diluted to 5,000/2 mL, with stem cell sphere culture medium, and cultured in a 37°C, 5% CO2 cell incubator. The number of stem cell spheres were observed every day. […]
# [8] = tested on: MDA-MB-468 cells; test: Spheroid-formation assay; assay type: cell-based, human; settings: 1 nM PTX + 1 µM APN inhibitor, 7 days
# Protocol: as §6, §7
# [9] = tested on: MDA-MB-231 cells; test: Colony-formation assay; assay type: cell-based, human; settings: 0.2 nM PTX + 1 µM APN inhibitor, 14 days
# Protocol: as §6
# (§8) 3000 cells were suspended in 2 mL medium, and seeded into the wells of six-well plate. After 12 hours of incubation, cells were treated with various compounds. Until each colony had more than 50 cells, this experiment terminated. Cells were washed twice with PBS and fixed with methanol for 10minutes. Then cells were stained with 1% crystal violet for 5minutes. Finally, colonies were washed and pictures were taken under a microscope (IX81, Olympus).
# [10] = tested on: MDA-MB-468 cells; test: Colony-formation assay; assay type: cell-based, human; settings: 0.2 nM PTX + 1 µM APN inhibitor, 14 days
# Protocol: as §6, §8
# [11] = tested on: luciferase-expressing MDA-MB-231 cells; test: In vivo anticancer study, xenograft model in female nude mice; settings: 20 mg/kg/d APN inhibitor + 10 mg/kg/3 days PTX; 3 weeks; n = 4
# Protocol: To evaluate the in vivo anticancer potency of the combination of PTX-APN inhibitor, cancer xenograft model was established by inoculation of luciferase- expressing MDA-MB-231 cells to female nude mice. About 1×10^7 MDA-MB-231 cells were injected subcutaneously into the right fat pad of the fourth mammary gland of the mice. […] Significant tumor size variations were observed among different groups ( Figures 5A, B ). […] Moreover, no clear signs of toxicity in liver and spleen were detected in the sacrificed mice.
# Female Nude mice aged 3 weeks were purchased from Hunan SJA Experimental Animal Company and raised under SPF aseptic conditions. About 1×10^7 luciferase overexpressing MDA-MB-231 cells were injected subcutaneously into the right fat pad of the fourth mammary gland of each mouse. […] PBS group animals received PBS via intraperitoneal injection, while 10 mg/kg/3 days of PTX was administered to animals in the PTX group. […] After 3 weeks of administration, each mouse was intraperitoneally injected with 200uL of fluorescein substrate (d-fluorescein potassium salt, 150mg/kg), and then anesthetized with isoflurane. In vivo fluorescence imaging system (IVIS Spectrum, PerkinElmer) and SlideBook4.0 software were utilized for the result analysis. After the imaging analysis, mice were sacrificed and dissected for the detection of tumor size and calculation of liver/spleen indexes. All animal experiments were approved by the Animal Care and Use Committee of Weifang Medical University.
# [12] = molecular target: Aminopeptidase N (APN, CD13) (Homo sapiens, UniProt P15144); test: APN enzyme inhibitory assay, supernatant of K562-CD13 cells as enzyme source, L-leucine-p-nitro anilide substrate; settings: for inhibition at 30 µM: read-out: Inhibitory rate (%);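 on all read-outs here: substrate L-leucine-p-nitro anilide used at 1.6 mM, with enzyme from sonicated APN-overexpressing K562 cell lysate supernatant, run in 96-well plates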
# Chain of Aminopeptidase N (APN, CD13) (P15144 whole entry): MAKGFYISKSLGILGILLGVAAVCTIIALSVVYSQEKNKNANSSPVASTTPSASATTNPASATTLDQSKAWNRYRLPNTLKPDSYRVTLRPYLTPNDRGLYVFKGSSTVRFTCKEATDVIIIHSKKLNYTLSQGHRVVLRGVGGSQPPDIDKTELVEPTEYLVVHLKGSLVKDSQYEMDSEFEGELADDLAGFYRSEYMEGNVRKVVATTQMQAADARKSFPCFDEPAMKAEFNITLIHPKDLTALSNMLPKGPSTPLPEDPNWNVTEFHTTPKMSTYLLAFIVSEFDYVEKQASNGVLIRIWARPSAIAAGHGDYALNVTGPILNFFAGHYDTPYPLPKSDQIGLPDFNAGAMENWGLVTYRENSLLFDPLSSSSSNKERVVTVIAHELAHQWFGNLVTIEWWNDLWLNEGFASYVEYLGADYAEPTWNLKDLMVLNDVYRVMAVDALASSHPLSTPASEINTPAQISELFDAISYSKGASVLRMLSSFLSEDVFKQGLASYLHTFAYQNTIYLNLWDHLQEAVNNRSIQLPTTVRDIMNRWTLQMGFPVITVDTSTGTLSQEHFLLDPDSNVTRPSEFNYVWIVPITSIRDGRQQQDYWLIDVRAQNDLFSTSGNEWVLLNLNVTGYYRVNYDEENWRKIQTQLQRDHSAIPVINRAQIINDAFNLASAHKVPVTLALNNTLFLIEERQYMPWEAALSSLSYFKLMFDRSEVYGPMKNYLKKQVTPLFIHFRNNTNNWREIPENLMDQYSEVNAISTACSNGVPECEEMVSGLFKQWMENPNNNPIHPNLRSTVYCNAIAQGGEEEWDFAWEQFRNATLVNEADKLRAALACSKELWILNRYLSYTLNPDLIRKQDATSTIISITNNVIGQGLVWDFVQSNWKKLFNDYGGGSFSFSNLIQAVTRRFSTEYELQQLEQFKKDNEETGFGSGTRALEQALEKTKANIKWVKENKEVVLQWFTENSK
# Protocol: In the enzyme inhibitory assay, K562-CD13 monoclonal cells were used as APN enzyme source as described in our previous work ([27]).
# K562 cells with overexpression of APN were added into PBS for ultrasonic crushing, centrifuged for 10 minutes, and supernatant was taken as enzyme source and added into 96-well plate. Different concentrations of compounds were added subsequently, and 1.6 mM L-leucine-p-nitro anilide was used as substrate. After 30 minutes of reaction, the APN enzyme activity was measured at 405 nm absorbance. The inhibition rate of APN activity was analyzed by the formula (Od control OD tested)/Od control 100%.
compound,measurement,setting,value
"O=C(Cn1c2c(c3ccccc31)CCN(C(=O)c1ccccc1F)C2)NO [Compound D14, 2-(2-(2-fluorobenzoyl)-1,2,3,4-tetrahydro-9H-pyrido[3,4-b]indol-9-yl)-N-hydroxyacetamide]",antiproliferative activity of chemotherapeutic drugs in combination with APN inhibitor,[1],synergistically improved the antiproliferative activity of chemotherapeutic drugs
same,antiproliferative activity of chemotherapeutic drugs in combination with APN inhibitor,[2],synergistically improved the antiproliferative activity of chemotherapeutic drugs
same,"APN expression, combination with PTX compared with paclitaxel alone",[3],decreased APN expression
same,"APN expression, combination with PTX compared with paclitaxel alone",[4],decreased APN expression
same,"apoptotic rate in combination with PTX, compared with Bestatin",[5],higher apoptotic rate
same,"apoptotic rate in combination with PTX, compared with Bestatin",[6],higher apoptotic rate
same,"number of tumor spheres formed, compared with control and PTX alone",[7],significant decrease in the number of tumor spheres
same,"number of tumor spheres formed, compared with control and PTX alone",[8],significant decrease in the number of tumor spheres
same,"colony formation, compared with control and single PTX",[9],decreased the tumor sphere and colony formation abilities
same,"colony formation, compared with control and single PTX",[10],decreased the tumor sphere and colony formation abilities
same,anticancer effect of PTX (tumor weight) compared with single PTX administration group,[11],improved the anticancer effect of PTX
same,"inhibitory rate (tumor), in combination with PTX",[11],31.32%
same,IC50,[12],7.74 ± 0.33 µM
same,inhibition at 30 µM,[12],74.3 ± 6.16%
"O=C(NO)c1ccc(Cn2c3c(c4ccccc42)CCN(C(=O)c2cc(F)cc(F)c2)C3)cc1 [Compound D25, 4-((2-(3,5-difluorobenzoyl)-1,2,3,4-tetrahydro-9H-pyrido[3,4-b]indol-9-yl)methyl)-N-hydroxybenzamide]",inhibition at 30 µM,[12],27.9 ± 5.85%
"O=C(NO)c1ccc(Cn2c3c(c4ccccc42)CCN(C(=O)c2cccc(Br)c2)C3)cc1 [Compound D22, 4-((2-(3-bromobenzoyl)-1,2,3,4-tetrahydro-9H-pyrido[3,4-b]indol-9-yl)methyl)-N-hydroxybenzamide]",inhibition at 30 µM,[12],19.2 ± 3.7%
"CC(C)C[C@H](NC(=O)[C@@H](O)[C@H](N)Cc1ccccc1)C(=O)O [Bestatin, reference compound]","APN expression, combination with PTX compared with paclitaxel alone",[3],decreased APN expression
same,"APN expression, combination with PTX compared with paclitaxel alone",[4],decreased APN expression
same,"number of tumor spheres formed, compared with control and PTX alone",[7],significant decrease in the number of tumor spheres
same,"number of tumor spheres formed, compared with control and PTX alone",[8],significant decrease in the number of tumor spheres
same,anticancer effect of PTX (tumor weight) compared with single PTX administration group,[11],improved the anticancer effect of PTX
same,"inhibitory rate (tumor), in combination with PTX",[11],10.63%
same,inhibition at 30 µM,[12],53.9 ± 0.77%
"O=C(Cn1c2c(c3ccccc31)CCN(C(=O)c1cc(F)cc(F)c1)C2)NO [Compound D24, 2-(2-(3,5-difluorobenzoyl)-1,2,3,4-tetrahydro-9H-pyrido[3,4-b]indol-9-yl)-N-hydroxyacetamide]",IC50,[12],7.13 ± 0.13 µM
same,inhibition at 30 µM,[12],71.3 ± 4.25%
"CCc1ccc(C(=O)N2CCc3c(n(Cc4ccc(C(=O)NO)cc4)c4ccccc34)C2)cc1 [Compound D19, 4-((2-(4-ethylbenzoyl)-1,2,3,4-tetrahydro-9H-pyrido[3,4-b]indol-9-yl)methyl)-N-hydroxybenzamide]",inhibition at 30 µM,[12],19.5 ± 4.22%
"O=C(Cn1c2c(c3ccccc31)CCN(C(=O)c1cccc(Br)c1)C2)NO [Compound D21, 2-(2-(3-bromobenzoyl)-1,2,3,4-tetrahydro-9H-pyrido[3,4-b]indol-9-yl)-N-hydroxyacetamide]",IC50,[12],7.82 ± 1.05 µM
same,inhibition at 30 µM,[12],78.2 ± 5.43%
"CCc1ccc(C(=O)N2CCc3c(n(CC(=O)NO)c4ccccc34)C2)cc1 [Compound D18, 2-(2-(4-ethylbenzoyl)-1,2,3,4-tetrahydro-9H-pyrido[3,4-b]indol-9-yl)-N-hydroxyacetamide]",inhibition at 30 µM,[12],53.2 ± 2.08%
"O=C(NO)c1ccc(Cn2c3c(c4ccccc42)CCN(C(=O)c2ccc(C(F)(F)F)cc2)C3)cc1 [Compound D2, N-hydroxy-4-((2-(4-(trifluoromethyl)benzoyl)-1,2,3,4-tetrahydro-9H-pyrido[3,4-b]indol-9-yl)methyl)benzamide]",inhibition at 30 µM,[12],13.3 ± 3.25%
"O=C(Cn1c2c(c3ccccc31)CCN(C(=O)c1ccccc1C(F)(F)F)C2)NO [Compound D5, N-hydroxy-2-(2-(2-(trifluoromethyl)benzoyl)-1,2,3,4-tetrahydro-9H-pyrido[3,4-b]indol-9-yl)acetamide]",IC50,[12],14.9 ± 1.03 µM
same,inhibition at 30 µM,[12],62.9 ± 8.72%
"CCCc1ccc(C(=O)N2CCc3c(n(Cc4ccc(C(=O)NO)cc4)c4ccccc34)C2)cc1 [Compound D27, N-hydroxy-4-((2-(4-propylbenzoyl)-1,2,3,4-tetrahydro-9H-pyrido[3,4-b]indol-9-yl)methyl)benzamide]",inhibition at 30 µM,[12],20.4 ± 5.78%
"CCCc1ccc(C(=O)N2CCc3c(n(CC(=O)NO)c4ccccc34)C2)cc1 [Compound D26, N-hydroxy-2-(2-(4-propylbenzoyl)-1,2,3,4-tetrahydro-9H-pyrido[3,4-b]indol-9-yl)acetamide]",inhibition at 30 µM,[12],53.1 ± 7.31%
"O=C(NO)c1ccc(Cn2c3c(c4ccccc42)CCN(C(=O)c2ccc(F)cc2F)C3)cc1 [Compound D23, 4-((2-(2,4-difluorobenzoyl)-1,2,3,4-tetrahydro-9H-pyrido[3,4-b]indol-9-yl)methyl)-N-hydroxybenzamide]",inhibition at 30 µM,[12],65 ± 5.97%
"COc1ccc(C(=O)N2CCc3c(n(Cc4ccc(C(=O)NO)cc4)c4ccccc34)C2)cc1 [Compound D9, N-hydroxy-4-((2-(4-methoxybenzoyl)-1,2,3,4-tetrahydro-9H-pyrido[3,4-b]indol-9-yl)methyl)benzamide]",inhibition at 30 µM,[12],24 ± 0.25%
